We go through two substances from patent publication US10246711B2, “RNAi inhibitors of glucose-6-phosphate dehydrogenase for treating cardiovascular and pulmonary conditions” (priority 2016, dated 2019).

Common to all, as to assay type: cell-based
Data set [1] concerns polymerase delta, cyclin E1, cyclin B1. The experiment in a line: Western blot of replication and cell cycle proteins in rat pulmonary artery smooth muscle cells. The note with it: rat PASMC, normoxic and hypoxic conditions. The method, then: (§1) FIGS. 4A-4B are blots showing rat pulmonary artery smooth muscle cells that were cultured in 15% DMEM for 48 hr and transfected with G6PD-siRNA#1 and G6PD-siRNA#2, respectively (0.5 and 1.0 μl=50 ng and 100 ng, respectively). The cells were then subjected to hypoxia (1% 02) for 72 hr. Expression of G6PD protein was estimated using western blot analyses. UT=Untransfected; NT=non-targeting/scrambled sequence (FIG. 4A). Beta-Actin (ACTB) was used as loading control. FIG. 4B are blots showing the effect of G6PD-siRNA#2 treatment, on the expression of G6PD (FIG. 4B-panel 2), polymerase delta (FIG. 4B-panel 3), cyclin E1 (FIG. 4B-panel 4), and cyclin B (FIG. 4B-panel 5), under normoxic and hypoxic conditions, in these cells were determined using Western blot analyses. GAPDH was used as a loading control.
(§2) In FIGS. 4A-B, rat pulmonary artery smooth muscle cells were cultured in 15% DMEM for 48 hr. Cells were then transfected with G6PD-siRNA#1 and G6PD-siRNA#2, respectively (0.5 and 1.0 μl=50 ng and 100 ng, respectively) and subjected to hypoxia (1% 02) for 72 hr. […] GAPDH was used as a loading control.
(In western blotting, separated proteins are transferred to a membrane and probed.)

Data set [2] has as its system G6PD protein. Nature of the data set: Western blot of G6PD protein in hypoxic rat pulmonary artery smooth muscle cells. Conditions: rat PASMC; 50 ng and 100 ng; hypoxia (1% O2) 72 hr; compared to untransfected (UT), non-targeting (NT) and G6PD-siRNA#1; FIG. 4A. The procedure: as §1, §2
Data set [3] concerns G6PD. Nature of the data set: G6PD knockdown by G6PD-specific siRNA sequence (preliminary results). Conditions: based on preliminary results. The method, then:
PASM cells cultured in a 12-well plate were transfected for 72 h with 100 nmol/1 shRNA targeting G6PD using lipid-based and nano-particle based transfection system. Control experiments were performed using a nontargeting/scrambled (NT) shRNA (negative control).

As to “G6PD-siRNA#2: Sense (SEQ ID NO. 6) 5′ CGACGAAGCGCAGACAGCGUC 3′; Antisense (SEQ ID NO. 7) 5′GACGCUGUCUGCGCUUCGUCG3′ (listed as RNA, chemistry not given here)”, in data set [1] (FIG. 4B-panel 3), the “expression of polymerase delta” value is on record as “significantly down-regulated”. Besides, in data set [1] (FIG. 4B-panel 4), the “expression of cyclin E1” value is “significantly down-regulated”. Also, the “expression of cyclin B1” value in data set [1] (FIG. 4B-panel 5) was “significantly down-regulated”. Besides, the G6PD protein expression result in data set [2] is recorded as “significantly down-regulated”.
In the case of “SEQ ID NO: 2: G6PD-specific siRNA gene sequence CAACAUCGCCUGCGUUAUC; nucleotide positions 922-940 of SEQ ID NO. 1 (expressed or natural sequence)”, in data set [3], the “downregulation of G6PD” value was “specifically and efficaciously downregulated G6PD”.
